The text below walks through data of the METLIN SMRT retention time set (Domingo-Almenara et al. 2019).

A short description of this series: gradient 5% acetonitrile 3 min, to 50% in 2 min, to 85% in 15 min, held 3 min, 100 µL/min. The following applies: column: Zorbax Extend-C18 2.1 x 50 mm; eluents: water / acetonitrile, 0.1% formic acid. In short, it runs like this: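 Retention time was recorded from adduct peaks, which were picked computationally and each inspected manually. Pure standards ran in mixtures of ~100 molecules on HPLC coupled to a quadrupole time-of-flight mass spectrometer, in positive and negative ionization mode, through a Zorbax Extend-C18 column (2.1 × 50 mm, 1.8 μm) at 100 μL/min. Eluents were water and acetonitrile, each with 0.1% formic acid.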
The molecule `O=C(NC1CCS(=O)(=O)C1)C1CCN(C(=O)C2CC(=O)N(c3ccc(F)cc3)C2)CC1` (stereo not drawn) returned an RP-LC retention time of 633 s.
Take `Cc1nn(CCCC(=O)N2CCOCC2)c(=O)c2c(-n3cccc3)n(-c3ccccc3)nc12`: the RP-LC retention time stood at 788 s.
In the case of `Cc1ccc(CNC(=O)C2CCN(S(=O)(=O)c3ccc(-c4noc(C5CC5)n4)cc3)CC2)o1`, the RP-LC retention time is 938 s.
For the molecule `O=C(NCc1ccco1)c1csc(N2CCN(c3ccc(Cl)cc3)CC2)n1`, the RP-LC retention time worked out at 1090 s.
As for `COc1ccc(NC(=O)C2CCN(S(C)(=O)=O)c3ccccc3O2)cc1` (stereo not drawn), the RP-LC retention time is 824 s.
`Cc1noc(-c2ccc(OC3CN(C(=O)Cc4ccsc4)C3)cc2)n1`: the RP-LC retention time was found to be 826 s.
The same measure for `CCc1noc(NC(C)=O)c1-c1ccc(C)c(S(=O)(=O)Nc2ccccc2F)c1`: 798 s; for `O=C(Cn1nc(C(=O)N2CCCC2)c2ccccc21)N1CCN(c2cccc(C(F)(F)F)c2)CC1`: 983 s.
The result for `CC(=O)N1CCc2cc(N3CC(C(=O)NCc4ccc(F)cc4F)CC3=O)ccc21` (stereo not drawn) reads 692 s; that for `COCC(=O)N(CC(=O)N1CCc2sccc2C1COc1ccc(Cl)cc1)CC1CCCO1` (stereo not drawn), 871 s.
`CC1CCCCN1CCN(CCC(=O)N1CCNCC1)C(=O)c1ccc(C(C)(C)C)cc1` (stereo not drawn) gave an RP-LC retention time of 593 s.
As to `CCOc1ccc(C(=O)N2CCN(c3nc(CN4CCOCC4)cs3)CC2)cc1`, the RP-LC retention time turned out to be 615 s.
As for `CCOC(=O)C1=C(C)N(CC(=O)NCC2CCCO2)c2ncnn2C1c1ccccc1` (stereo not drawn), the RP-LC retention time amounted to 747 s.
As to `Cc1nn(C)c(C)c1-c1cc(C(=O)O)[nH]n1`, the RP-LC retention time turned out to be 574 s.
As to `CCCN1CCN(c2cc(C(=O)O)c3cc(NS(=O)(=O)c4cccc(C)c4)ccc3n2)CC1`, the RP-LC retention time was found to be 607 s.
Take `COc1ccc(C2C(C(=O)O)c3ccccc3C(=O)N2C)cc1` (stereo not drawn): the RP-LC retention time worked out at 688 s.
The molecule `COc1ccc(C(C)NC(=O)Cn2nc3cc(-c4ccccc4)nc(C)n3c2=O)cc1` (stereo not drawn) registered an RP-LC retention time of 908 s.
Molecule `COc1ccc(-c2ncc(C(=O)O)c(=O)[nH]2)cc1OC` gave an RP-LC retention time of 591 s.
`COc1ccccc1-c1nc(-c2ccc3nnn(C)c3c2)no1`: the RP-LC retention time is 923 s.
As to `COc1ccc(OC)c(NC(=O)c2csc(-c3ccc(C)n3C)n2)c1`, the RP-LC retention time came to 1230 s.
Regarding `COc1ccc(C(CC(=O)N2CCCCCC2)N2Cc3ccccc3C2=O)cc1OC` (stereo not drawn), the RP-LC retention time is 785 s.
`CCc1nn2c(CNS(=O)(=O)Cc3ccc(C)c(C)c3)c(-c3ccccc3)nc2s1` displayed an RP-LC retention time of 1040 s.
The result for `O=C(Cc1ccc(NC(=O)c2cnc3ccccc3n2)cc1)NCC(F)(F)F` reads 756 s; that for `Cc1noc(C)c1S(=O)(=O)N1CCC(C(=O)NCCc2csc(-c3cccs3)n2)CC1`, 858 s.
The same measure for `Cc1ccc2oc(-c3nnc(C(=O)NCc4ccc(C)o4)o3)c(C)c2c1`: 1100 s.
The same measure for `Cn1ncc(N2CCCC(CC(=O)NCc3cccs3)C2)cc1=O` (stereo not drawn): 676 s; for `CCc1ccc(C(=O)N2CCN(c3nc(CN4CCCCCC4)cs3)CC2)cc1`: 708 s.
`C[C@@H]1CN(CC(=O)Nc2ccc3c(c2)Cc2cccc(-c4cc(=O)cc(N5CCOCC5)o4)c2S3)C[C@H](C)O1`: the RP-LC retention time is 748 s.
Consider `COc1cc(OC)cc(N2C=C(C#N)S(=O)(=O)c3ccc(C)cc32)c1`, for which the RP-LC retention time is 948 s.
The result for `Cc1oc(C2CCN(S(=O)(=O)c3ccc(F)c(F)c3)CC2)nc1C(=O)N1CCCC1` reads 936 s; that for `CCOC(=O)c1c(C)c(CCC(=O)NCc2ccc(C)o2)n(C)c1C`, 842 s.
`C=CCn1c(C)c(CC(=O)NCC(C)C)c(=O)n2nc(-c3ccccc3)nc12` displayed an RP-LC retention time of 779 s.
Molecule `O=C(c1nnn2c1COC(c1ccccc1)C2)N1CCN(C(=O)C2(c3ccccc3)CC2)CC1` (stereo not drawn) showed an RP-LC retention time of 850 s.
For the molecule `COCCC(=O)N1CC(F)(F)C[C@H]1c1nc(C2CC2)no1`, the RP-LC retention time amounted to 713 s.
As to `Cc1c(Cl)cccc1-n1nc(C)c2c(C(F)(F)F)cc(OCC(=O)NC(C)C)nc21`, the RP-LC retention time was 1160 s.
Regarding `CC(C)(C)c1ccc(OCC(=O)Nc2ccc(CC(=O)N3CCOCC3)cc2)cc1`, the RP-LC retention time came out at 870 s.
`Cc1ccc(NC(=O)Cn2nc(N3CCOCC3)c3ccccc3c2=O)cc1` gave an RP-LC retention time of 789 s.
`Cc1cc(Nc2ccc(NC(=O)Cc3cccs3)cc2)nc(N2CCCC2)n1` registered an RP-LC retention time of 595 s.
With `Cc1ccc(C)c(N2CC(c3nc(-c4ccc5c(c4)OCO5)no3)CC2=O)c1` (stereo not drawn), the RP-LC retention time was determined as 998 s.
The result for `CCN1C(=O)c2cc(S(=O)(=O)Nc3ccc(Cl)cc3F)ccc2Oc2cccnc21` reads 1070 s.
`COc1ccc(S(=O)(=O)N2CCCC(C(=O)NCC3CCCO3)C2)cc1C` (stereo not drawn) registered an RP-LC retention time of 778 s.
`CCC(=O)NC(C)c1nc(-c2ccc(C)cc2)no1` (stereo not drawn): the RP-LC retention time came out at 777 s.
The same measure for `CS(=O)(=O)N1CCC(C(=O)Nc2cccc(F)c2)Oc2ccccc21` (stereo not drawn): 894 s.
As to `O=C(CCNc1c(-c2cccc(F)c2)nc2cnccn12)NCc1ccccc1F`, the RP-LC retention time stood at 742 s.
The result for `Cc1ccc(CNC(=O)c2cn(C)c3c(c(C)nn3-c3ccc(F)cc3)c2=O)o1` reads 803 s; that for `COc1ccc(-c2ccc(N3CCN(C(=O)c4cnc5ccccc5n4)CC3)nn2)cc1`, 615 s.
For `O=C(Cn1cc2c(n1)CCCCC2)Nc1ccc(Br)cc1F`, the RP-LC retention time turned out to be 1050 s.
In the case of `Cc1ccc(CN2C(=O)COC[C@H]2C(=O)NCc2ccco2)cc1`, the RP-LC retention time is 737 s.
The molecule `O=C(Nc1ccc(F)cc1Cl)C1CCN(C(=O)c2cccn2-c2cccnc2)CC1` displayed an RP-LC retention time of 727 s.
As to `O=C(NC1CCCCC1)c1c2c(nc3ccccc13)CCC2`, the RP-LC retention time stood at 690 s.
Molecule `COc1cccc(CNC(=O)C2(C)CCCN(C(=O)Nc3ccc(F)cc3)C2)c1` (stereo not drawn) registered an RP-LC retention time of 858 s.
As for `Cc1ccc(C)c(CNC(=O)c2ccc3ncnc(N4CCCC4)c3c2)c1`, the RP-LC retention time turned out to be 678 s.
The molecule `O=C(c1ccc(-c2ccc3c(c2)CCN3S(=O)(=O)c2ccccc2F)cc1)N1CCOCC1` had an RP-LC retention time of 899 s.
`CN1C(=O)c2cc(C(=O)Nc3ccc(Cl)cc3)nn2CC1(C)C(=O)NC1CCCCC1` (stereo not drawn): the RP-LC retention time worked out at 898 s.
In the case of `O=c1n(Cc2nc(-c3ccc4c(c3)OCO4)no2)nc2ccc(-c3ccccc3)nn12`, the RP-LC retention time came to 843 s.
Molecule `Cc1cc(C(=O)N2CC(C(=O)NCCc3ccc(F)cc3)C2)no1` had an RP-LC retention time of 680 s.
The same measure for `O=C(NCc1ccco1)C1CCN(c2nc3ccc(-c4cccnc4)nc3s2)CC1`: 644 s.
The same measure for `O=C1NCCCCCCN(Cc2ccncc2)[C@@H]2CN(C3CCC3)CC[C@H]12`: 559 s.
Turning to `COc1ccc(OC)c(S(=O)(=O)N2CCc3c(c(-c4nnc(-c5ccccc5)o4)nn3C)C2)c1`, the RP-LC retention time came to 912 s.
Molecule `Cc1ccc(NC(=O)C2CCN(S(=O)(=O)c3ccc4c(c3)CCCC(=O)N4)CC2)cc1F` showed an RP-LC retention time of 817 s.
The result for `CCc1ccc(NC(=O)C2CCc3nc(N(CC)CC)ncc3C2)cc1` (stereo not drawn) reads 799 s; that for `COc1ccc(SCCc2ccncc2)cc1`, 662 s; that for `O=C(CCn1c(N2CCCCC2)nc2ccccc2c1=O)N1CCN(c2ccccn2)CC1`, 630 s.
`Cc1ccc(-c2cc3c4nnc(SCC(=O)Nc5cccc(Cl)c5)n4ccn3n2)cc1C` came in with an RP-LC retention time of 1060 s.
Turning to `CCC(C)NC(=O)c1ccc(NC(=O)C2CC2)cc1N1CCCCCC1` (stereo not drawn), the RP-LC retention time came out at 738 s.
Molecule `CN1c2cc(F)ccc2C(=O)NC12CCN(C(=O)c1cccc(Cl)c1)CC2` gave an RP-LC retention time of 800 s.
In turn, `CCn1cc(C(=O)NC2CCN(c3ccc(=O)n(CCOc4ccccc4)n3)C2)cn1` (stereo not drawn) came in with an RP-LC retention time of 692 s.
The same measure for `CCCNC(=O)c1ccc2c(c1)CCN2C(C)=O`: 635 s; for `Cc1noc(C)c1CCNC(=O)CCCN1C(=O)CCn2nc(-c3cn(C)c4ccccc34)cc21`: 732 s.
The result for `CNS(=O)(=O)c1cc(-c2nnc(-c3ccc(OC)c(OC)c3)o2)ccc1C` reads 779 s.
In turn, `COc1ccc(-c2nnc(-c3cccnc3N3CCN(C(=O)c4ccc(C#N)cc4)CC3)o2)cc1` gave an RP-LC retention time of 874 s.
Molecule `O=C(Nc1nc2ccccc2s1)C1CCN(C(=O)c2ccccc2Cl)CC1` returned an RP-LC retention time of 829 s.
The same measure for `Cc1ccc(-c2csc3c(=O)n(Cc4ccccn4)cnc23)cc1`: 889 s; for `CCOC(=O)c1ccc(NC(=O)Cn2cccc(-c3nc(-c4ccc(F)cc4)no3)c2=O)cc1`: 922 s.
The result for `CCOc1ccc(CNC(=O)c2cc(-c3ccncc3)cn2C)cc1` reads 644 s; that for `CCc1ccccc1Nc1nc(-c2ccc(Cl)cc2)cs1`, 1310 s; that for `CCN(c1ccccc1)S(=O)(=O)c1cc(-c2[nH]ncc2C(=O)N(C)C)oc1C`, 739 s.
The molecule `CC(C)n1cnc2ccc(-c3noc(-c4cccc(C#N)c4)n3)cc21` came in with an RP-LC retention time of 761 s.
